The values that follow come from a melting point compilation (Tetko et al.; mined from patent text by program, amines drawn as free bases though some values may be those of a salt).

On to `CCCc1c(OC(=S)N(C)C)ccc2c(=O)cc(C(=O)OCC)oc12`, for which the melting point fell in the range of 132 to 134 °C. Consider `CC1(Cc2ccc(OCc3ccccc3)cc2)OCCO1`, for which the melting point lay in the range of 58 to 62 °C. Turning to `O=c1[nH]c2cc(C(F)(F)F)ccc2n1C1CCNCC1`, the melting point worked out at 198 °C. The figure for `CSc1c[nH]c2ncnc(Cl)c12` is 166 to 167 °C; for `N#CCc1c[nH]c2ccc(CCS(N)(=O)=O)cc12` it is 109 to 111 °C; for `CC(=O)Oc1cccc(C=C2CCCc3cc(C)cnc32)c1` it is 66 to 68 °C. The figure for `COC(=O)c1cc(OC)c([N+](=O)[O-])cc1N` is 127 to 129 °C.

Regarding `COc1cc(N)c(Cl)cc1Br`, the melting point lay within 40 to 41 °C. With `COC(=O)c1cc2ccccc2nc1C(=O)OC`, the melting point lay within 105 to 106 °C. For the compound `O=c1[nH]c2cccnc2n1CCCO`, the melting point lay in the range of 145 to 148 °C. The figure for `COC(=O)c1cccc2oc(SCCN3CCN(CC(=O)Nc4c(C(C)C)cccc4C(C)C)CC3)nc12` is 173 to 175 °C; for `C=C(C(=O)O)c1cc(-c2cc3c(cc2C)C(C)(C)CCC3(C)C)ccc1OCCC` it is 125 to 126 °C; for `Cc1cnc2c([N+](=O)[O-])cccc2c1Cl` it is 126 °C. The figure for `Cc1cc(C)n(-c2nc(Nc3ccccc3C)c3ccccc3n2)n1` is 240 to 244 °C; for `FC1CC(Nc2ncnc3[nH]ncc23)CCC1OCC(F)(F)c1ccccc1` (configuration not stated) it is 178 to 179 °C; for `COCOCc1cccc2c(=O)c(C(=O)O)c(-c3ccccc3)oc12` it is 142 to 143 °C. Under `COc1cc2c(cc1O)OCC(c1ccc(O)cc1)C2` (configuration not stated) stands 159 °C; under `C=C(C)CN(CCC12CC3CC(CC(C3)C1)C2)C(=O)NCCCc1ccncc1`, 108 to 109 °C; under `C[C@@]1(c2ccccc2)OC(c2ccccc2)=NC[C@H]1OC(=O)Nc1ccccc1` (racemic), 180 °C. In the case of `CCCc1nc(NC2CC2)nc(N2CCOCC2)n1`, the melting point came out at 104 °C. In turn, `Cn1c(=O)[nH]c2nc3ccc(OCCCCC(=O)O)cc3cc21` gave a melting point of 311 to 313 °C. For `CCOC(=O)c1ncn(-c2ccc(Cl)c(Cl)c2)c1C`, the melting point was 163 to 164 °C. The figure for `CN1CCN(C2=Nc3ccccc3Nc3c(Cl)cccc32)CC1` is 168 to 170 °C; for `CCCC(=O)c1cnc2c(F)cccc2c1Nc1ccc(O)cc1C` it is 205 to 207 °C; for `CN(C)c1nc2n(n1)CC1=CSC(=O)C1=N2` it is 295 to 298 °C. Under `CCOC(=O)CN(CC1CC2c3cccc4[nH]cc(c34)CC2N(C)C1)C(=O)NC(C)C` (configuration not stated) stands 118 to 120 °C; under `Cc1cc(N)nc(CCCCNC(=O)Cc2ccc3c(c2)OCO3)c1`, 56 to 58 °C; under `CC(C)(C)OC(=O)NCCON=C(c1ccccc1)c1cc2ccncc2[nH]1`, 84 to 88 °C. The figure for `CCCOC(=O)C1=C(N)NC(C)=C(C(=O)OCC)C1c1ccccc1C#N` (configuration not stated) is 182 °C; for `O=C1N(Cc2ccc(Cl)s2)c2c(C(F)(F)F)cccc2C12COc1cc3c(cc12)OCO3` (configuration not stated) it is 165 to 166 °C; for `CCCCC(CO)Nc1ccc([N+](=O)[O-])cc1C(=O)NCc1ccc2c(c1)OCO2` (configuration not stated) it is 112 to 115 °C. Regarding `CN1C=CCC(C(=O)OC2CCC3C4CCC5=CC(=O)CCC5(C)C4CCC23C)=C1` (configuration not stated), the melting point is 172 to 175 °C. The figure for `O=C(Nc1ccc(-n2nc(C(F)(F)F)cc2C2CC2)cc1)c1cccc(F)c1F` is 147 to 152 °C; for `FC(F)(F)c1ccc(-c2ccnc(Oc3ccc4cccnc4c3)c2)cc1` it is 156 to 158 °C.

Consider `COc1ccc(-c2[nH]nc3c2C(=O)c2c(NC(=O)Cc4cccc(OC)c4)cccc2-3)cc1`, for which the melting point is greater than 300 °C. Regarding `CCCN(C)C(C)CN1CCc2c(c(=O)oc3cc(OC)c(OC)cc23)C1` (configuration not stated), the melting point was 81 to 85 °C. The figure for `CC(Oc1ccc2c(c1)c(-c1cc3cccnc3[nH]1)cn2C)C(=O)O` (configuration not stated) is 177 to 178 °C. The figure for `Cc1scc2c1N(C(=O)CN1CCCCC1CN(C)C)c1ccccc1NC2=O` (configuration not stated) is 172 to 173 °C; for `Cc1nc2c(N)nc3ccccc3c2n1CCC(=O)N1CCOCC1` it is 166 to 169 °C. The figure for `Cc1sc(-c2ccco2)nc1COc1ccc(CCl)cc1` is 115 to 116 °C. `Clc1ccc2c(c1)CCc1cccnc1C2=C1CCNCC1` came in with a melting point of 154 to 155 °C. The figure for `CC(C)CCc1c(-c2ccc(S(N)(=O)=O)cc2)cnn(-c2cccc(Cl)c2)c1=O` is 167 to 170 °C; for `CS(=O)(=O)c1ccc(N2CCC3(CC2)OCCO3)cc1` it is 192 to 194 °C; for `CCCCCCCSC[C@H](N[C@@H](C)C(=O)O)C(=O)OCC` it is 124 to 126 °C. Regarding `Cc1cc2c(cc1O)OCCC2=O`, the melting point is 185 to 186 °C. `CC1(c2ccccc2)Cc2cc(OCC(=O)O)c(Cl)c(Cl)c2C1=O` (configuration not stated): the melting point is 168 to 169 °C. The figure for `COC(c1ccc(Cl)c2nc3n(c12)CCCN3c1ccc(Cl)cc1Cl)C1CC1` (configuration not stated) is 138 to 139 °C; for `CNC(=S)NS(=O)(=O)c1cc(CCNC(=O)c2cc(Cl)ccc2OC)ccc1-c1ccc(Cl)cc1` it is 189 to 192 °C; for `Cc1nc(CO)c(CO)[nH]1` it is 182 °C. Take `COc1ccc(CN(C)CCCCc2ccc(NC(=O)c3cccc4c(=O)c5cccc(N)c5[nH]c34)cc2)cc1OC`: the melting point is 250 °C. The figure for `COc1cc2[nH]c(C(=O)O)cc2c(C)c1C` is 208 °C; for `C#CC[C@@H](NC(=O)OC(C)(C)C)c1nc2cccnc2c(=O)n1Nc1ccccc1` it is 108 to 110 °C; for `CCC(O)c1nc2c(C(F)(F)F)cccc2c(O)c1C(=O)Nc1nccs1` (configuration not stated) it is 180 °C. Under `CN1CCN(c2nn(S(=O)(=O)c3ccccc3)c3cc(F)ccc23)CC1` stands 159 to 161 °C; under `CC(=O)Nc1cc(=O)c2cc(Oc3ccccc3)c(NS(C)(=O)=O)cc2o1`, 236 to 238 °C. As to `Cc1ccc(-c2cc(C(=O)O)c(=O)n(CC(C)C)n2)cc1F`, the melting point is 159 to 160 °C. With `CC(C)Oc1ccc2ccc(N)nc2n1`, the melting point amounted to 170 °C. The figure for `CN(C)CCCOc1ccc(Nc2nccc(-c3ccncc3)n2)cc1` is 123 to 124 °C; for `COc1ccc2c(c1)C(=O)C(=Cc1ccncc1)CO2` it is 170 to 172 °C; for `O=C1N[C@H](Cc2ccc(C(F)(F)F)cc2)[C@H](c2ccccc2)O1` (racemic) it is 158 to 159 °C. Compound `Cc1c(OCCCCCCC(=O)N(C)c2ccccc2)ccc([N+](=O)[O-])c1C=O` yielded a melting point of 72 to 73 °C. Regarding `Cc1ccc(S(=O)(=O)NCCc2ccc(O)cc2)cc1`, the melting point lay within 169 to 172 °C. The figure for `O=C(Nc1ccccn1)c1sc(Nc2ccccc2)c2c1CCc1cnoc1-2` is 196 to 197 °C; for `CC(C)=CCc1c(C)c(C)c(O)c(C)c1C` it is 105 to 106 °C; for `Cn1cc(Br)cc(Nc2ccn(C3CC3)n2)c1=O` it is 161 to 163 °C. The figure for `COC(=O)/C=C/c1ccc(C)cc1C#N` is 95 to 96 °C. As to `OCCc1ccc(-c2ccccc2)s1`, the melting point is 74 °C.

`NC(C(=O)O)C1CC(C(=O)O)C1C(=O)O` (configuration not stated) registered a melting point of 205 to 209 °C. On to `CC(C)CCCC(C)C1CCC2C3C=CC4=CC(=O)C5OC5C4(C)C3CCC12C` (configuration not stated), for which the melting point was in the range of 107 to 109 °C. Under `CC(C)Cc1ccc(C(=O)O)c(=O)n1C` stands 118 to 119 °C. For the compound `Cc1cnc(CS(=O)c2cc3ccccc3[nH]2)cc1N1CCCCC1` (configuration not stated), the melting point came out at 178 °C. Compound `CCOC(=O)COc1c(Br)cc(-c2cccc3sc4ccccc4c23)cc1Br` showed a melting point of 140 to 142 °C. The figure for `NC(=O)N(O)CCn1ccc2ccccc21` is 57 to 60 °C; for `CCOC(=O)C(N)=NOC(=O)c1ccc(F)cc1` it is 196 to 198 °C.

The compound `CCOC(=O)C(=NOC)c1nc(N)cc(Cl)n1` had a melting point of 136 to 142 °C. Under `CC(O)(CCCl)c1ccc(-c2ccc(Cl)cc2)cc1` (configuration not stated) stands 98 to 100 °C. `CCCCc1cc2ccccc2c(Cc2ccc(C(=O)O)cc2)n1`: the melting point came to 112 °C.

`CCCCc1c(Cl)nc(NC=O)nc1Cl` returned a melting point of 82 to 83 °C. For `CC(=O)NC1C(O)OC(CO)C(O)C1OC(C)C(=O)NC(C)C(=O)NC(CCC(=O)O)C(N)=O` (configuration not stated), the melting point lay within 150 to 151 °C. As to `CCN(CC)CC(O)CNC(=O)c1c(OC(=O)c2ccccc2)c2ccccc2n1-c1ccccc1` (configuration not stated), the melting point lay within 130 to 133 °C. Consider `COC(=O)NC(=N)N(C(=O)OC)c1c(Cc2ccccc2)c[nH]c1C(=O)OC`, for which the melting point was 158 to 160 °C. Compound `CS(=O)(=O)c1ccc(-c2cnn(CC(=O)c3ccc(C(=O)O)cc3)c(=O)c2-c2ccc(F)cc2)cc1` had a melting point of 239 to 241 °C.

`Cc1c(-c2ccccc2)oc2c(C(=O)N(C)CCCl)cccc2c1=O` registered a melting point of 126 to 128 °C.

On to `O=C(O)c1cc([N+](=O)[O-])ccc1Nc1ccc(CCCCCc2ccc(Cl)c(Cl)c2)cc1`, for which the melting point is 147 to 148 °C.

In the case of `CCC(C)(C)C(=O)OCc1cccc(C)c1OCCOc1ccc([C@H](N)C(=O)O)cc1`, the melting point was in the range of 170 to 172 °C. Take `CC(C)(C)OC(=O)NN=Cc1ccc(-c2ccccn2)cc1`: the melting point lay in the range of 169 to 172 °C. The figure for `Clc1ccc(Cc2c(Cl)nc3ncnn3c2Cl)cc1` is 165 to 167 °C; for `Oc1cccc(C#Cc2ccc(C(F)(F)F)cc2)c1` it is 131 to 132 °C.

`CCCc1nn(C)c2c(NCc3ccc(OC)c(Cl)c3)nc(CCC(=O)O)nc12` came in with a melting point of 178 °C.

Turning to `CCC12CCC3C4CCC(=O)C=C4CCC3C1CCC2OC(=O)CC(C)C` (configuration not stated), the melting point fell in the range of 82 to 89 °C.

In turn, `COC(=O)c1csc(C)c1S(=O)(=O)NC(=O)Nc1nc(C)nc(OC)n1` had a melting point of 195 °C. In turn, `CC1(C(=O)Nc2ccc(S(C)(=O)=O)c(C(F)(F)F)c2)CC1` showed a melting point of 135 to 138 °C.

Usually melting point stands for the temperature of the solid-liquid transition.
